The subject of experiment [1] is Barnyard grass (BG). The experiment in a line: Post-emergence herbicide test. As to conditions: Echinochloa crus-galli, 336 h, two weeks after treatment. The format is in vivo. The method in brief: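 Greenhouse pot-grown barnyard grass seedlings sprayed post-emergence at 8 lbs active compound per acre (some at 4 lbs/acre) in 38 gallons per acre, then sub-irrigated. Injury or control rated visually two weeks after treatment.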

The test system of experiment [2] is Amaranth pigweed (PW). The experiment in a line: Post-emergence herbicide test. Format: in vivo, Amaranthus retroflexus. As to conditions: 336 h, two weeks after treatment. As for the experimental part: Amaranth pigweed (PW)--Amaranthus retroflexus
(§1) All crop and weed species were planted individually in 3' plastic pots containing potting soil. Four seeds each of corn, cotton, and snapbeans were seeded to a depth equal to the diameter of the seed. All other species were surface seeded and sprinkled with screened soil in an amount sufficient to cover the seed. Immediately after planting, all pots were watered by sub-irrigation in greenhouse trays. Pots for the pre-emergence phase were seeded one day before treatment.
Planting dates for the post-emergence phase were varied so that all seedlings would reach the desired stage of development simultaneously. The proper stage of seedling development for treatment in the post-emergence phase is as follows:
Pigweed and turnips: 1 or 2 true leaves above visible cotyledons.
(§2) Compounds were tested at rates of application equivalent to 8 lbs. of actual compound per acre in a spray volume of 38 gallons per acre. Spray hood constants required to deliver the above volume are as follows:
(§3) Formulations for spray applications were prepared in 50 ml volumes with the following three components:
(§4) Formulations for the 4 lbs/acre rate were prepared by adjusting the amount of active ingredient accordingly.
(§5) Spray applications were made in a hood containing a removable belt and fixed spray nozzle. For passage through the spray hood, one pot of each specie (pre-emergence phase) was placed on the rear half of the flat. Treatments were removed to the greenhouse after spraying. Watering during the observation period was done only by sub-irrigation.
(§6) Two weeks after treatment, pre- and post-emergence injury or control was visually rated, and the results were as shown in the following tables. Pre-emergence data are provided in TABLE III and post-emergence data are provided in TABLE IV, for compounds having the formula illustrated in TABLE I. Correspondingly, pre-emergence and post-emergence data, respectively, are set forth in TABLES V AND VI, for compounds having the formula illustrated in TABLE II.

The test system of experiment [3] is Turnip (TP). In words: Post-emergence herbicide test. Format: in vivo, Brassica sp. As to conditions: Brassica rapa, post-emergence, 336 h, two weeks after treatment; for pest or weed control at 4483.4 g/ha: 4 lb/acre. The method in brief: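 A greenhouse post-emergence herbicide test on turnip. Seeds were sown on the surface of potting soil in 3' plastic pots, lightly covered with screened soil and watered from below. Planting was timed so seedlings had 1 or 2 true leaves above the cotyledons at spraying, done in a hood with a fixed nozzle. Control or injury was scored by eye after two weeks.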

Experiment [4] concerns Crabgrass (CG). In words: Post-emergence herbicide test. The format is in vivo, Digitaria sanquinalis. The conditions noted are these: Digitaria sanguinalis, post-emergence, 336 h, two weeks after treatment; for pest or weed control at 4483.4 g/ha: 4 lb/acre. The method in brief: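 Crabgrass (Digitaria sanquinalis) was surface seeded individually in 3' plastic pots of potting soil, covered with screened soil, and watered by sub-irrigation in greenhouse trays. Planting was staggered so seedlings reached the target stage together. Post-emergence sprays were applied in a hood with a removable belt and fixed nozzle, and control was visually rated two weeks after treatment.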

The subject of experiment [5] is Cotton (CT). The experiment in a line: Post-emergence herbicide test. The format is in vivo, Gossypium hirsutum var. DPL smooth leaf. As to conditions: Gossypium hirsutum, post-emergence, 336 h, two weeks after treatment; for pest or weed control at 4483.4 g/ha: 4 lb/acre. The method in brief:
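This greenhouse post-emergence test measured how well spray treatments controlled cotton. Seedlings of Gossypium hirsutum var. DPL smooth leaf, with expanded cotyledons and a first true leaf 1' in length, were sprayed with 50 ml formulations in a belt-fed spray hood. They were then returned to the greenhouse and watered only by sub-irrigation. Injury was scored visually as % control after two weeks.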

In experiment [6] the test system is Corn (CN). The experiment in a line: Post-emergence herbicide test. The conditions noted are these: Zea mays, 336 h, two weeks after treatment. The format is in vivo. The essentials:
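Greenhouse seedlings grown in potting soil and sprayed post-emergence at 8 lbs compound/acre (formulations also made for 4 lbs/acre) in 38 gallons/acre spray volume. Watering by sub-irrigation only. Injury or control rated visually two weeks after treatment.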

In experiment [7] the test system is Johnson grass (JG). In words: Post-emergence herbicide test. The format is in vivo, Sorgum helepense. As to conditions: Sorghum halepense, 336 h, two weeks after treatment. The essentials: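 Visual injury or control scores taken 2 weeks after a post-emergence spray of pot-grown plants. Application was 8 lbs/acre (or 4 lbs/acre) in 38 gal/acre. Plants were held in the greenhouse with sub-irrigation only.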

The subject of another experiment is Bean (BN). In words: Post-emergence herbicide test. The format is in vivo, Phaseolus vulgaris var. Black Valentine. As to conditions: Phaseolus vulgaris, post-emergence, 336 h, two weeks after treatment; for pest or weed control at 4483.4 g/ha: 4 lb/acre. The essentials: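 Bean seedlings (Phaseolus vulgaris var. Black Valentine) were grown in potting soil in 3' pots until the primary leaves expanded. They were then sprayed under a hood with a removable belt and fixed nozzle, using 50 ml formulations. Afterward they were returned to the greenhouse and watered only by sub-irrigation. Percent control was judged visually two weeks after treatment.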

Experiment [8] deals with Barnyard grass (BG). The experiment in a line: Pre-emergence herbicide test. The format is in vivo. As to conditions: Echinochloa crus-galli, 336 h, 4 lb/acre, two weeks after treatment. The essentials: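 Greenhouse pre-emergence spray test: pots seeded one day before treatment received compound at rates of 8 or 4 lb/acre (38 gal/acre). Visual injury/control scores for Echinochloa crus-galli taken at two weeks, with watering by sub-irrigation only.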

Experiment [9] concerns Johnson grass (JG). The experiment in a line: Pre-emergence herbicide test. The conditions noted are these: Sorghum halepense, 336 h, 4 lb/acre, two weeks after treatment. The format is in vivo, Sorgum helepense. The method in brief: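 Visual injury or control rating two weeks post-treatment, after pre-emergence spray of 8 or 4 lbs active per acre (38 gal/acre) onto pots sown the previous day. Greenhouse watering by sub-irrigation only.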

Experiment [10] relates to Turnip (TP). In words: Pre-emergence herbicide test. The format is in vivo, Brassica sp. The conditions noted are these: Brassica rapa, pre-emergence, 336 h; 4 lb/acre; two weeks after treatment. The essentials:
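In this pre-emergence greenhouse test, turnip was seeded on the surface of potting soil in 3' plastic pots, lightly covered with screened soil, and watered from below. One day later the pots were sprayed in a belt-fed spray hood. Watering continued only by sub-irrigation, and percent control was visually scored two weeks after treatment.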

Experiment [11] concerns Crabgrass (CG). In words: Pre-emergence herbicide test. Format: in vivo, Digitaria sanquinalis. As to conditions: Digitaria sanguinalis, pre-emergence, 336 h; 4 lb/acre; two weeks after treatment. The essentials: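 Crabgrass (Digitaria sanquinalis) was surface seeded in 3' plastic pots of potting soil, covered with screened soil, and watered by sub-irrigation in greenhouse trays. Pots were seeded one day before spraying in a hood with a moving belt and fixed nozzle. Plants stayed in the greenhouse on sub-irrigation, and pre-emergence control was rated visually two weeks after treatment.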

The subject of experiment [12] is Cotton (CT). In words: Pre-emergence herbicide test. The conditions noted are these: Gossypium hirsutum, 336 h, 4 lb/acre, two weeks after treatment. The format is in vivo, Gossypium hirsutum var. DPL smooth leaf. The essentials:
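Visual injury/control ratings were taken at two weeks post-spray. Pots seeded a day earlier received compound pre-emergence at 8 lbs/acre, or 4 lbs/acre, in a 38 gallon/acre spray volume, and were then held in the greenhouse, watered only from below.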

In experiment [13] the test system is Corn (CN). The experiment in a line: Pre-emergence herbicide test. The format is in vivo. The conditions noted are these: Zea mays, 336 h, 4 lb/acre, two weeks after treatment. The essentials:
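Visual injury/control ratings were made 2 weeks post-spray on corn pots seeded (4 seeds, seed-diameter depth) the day before treatment. Application was a belt-hood spray of 38 gal/acre delivering 8 lbs active per acre, with a 4 lbs/acre rate also formulated. Watering was by sub-irrigation throughout.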

Experiment [14] deals with Amaranth pigweed (PW). The experiment in a line: Pre-emergence herbicide test. As to conditions: 336 h, 4 lb/acre, two weeks after treatment. Format: in vivo, Amaranthus retroflexus. As for the experimental part: as §1, §2, §3, §4, §5, §6

Molecules are shown by their SMILES.

Turning to `CNC(=O)Nc1nnc(C(F)(F)Cl)s1` [Example 57], the pest or weed control at 8966.8 g/ha in the experiment on Barnyard grass (BG) [1] (8 lb/acre) amounted to 40%; in the experiment on Amaranth pigweed (PW) [2] (8 lb/acre) it was 90%; in the experiment with Turnip (TP) [3] (8 lb/acre) it was 100%; in the experiment on Crabgrass (CG) [4] (8 lb/acre), 60%; in the experiment with Cotton (CT) [5] (8 lb/acre), 90%; in the experiment on Corn (CN) [6] (8 lb/acre), 40%. Moreover, the pest or weed control at 8966.8 g/ha turned out to be 40% with Johnson grass (JG) [7] (8 lb/acre) and 100% in the experiment with Bean (BN) (8 lb/acre).
Take `CNC(=O)Nc1nnc(SCCCCl)s1` [Example 61]: the pest or weed control at 2241.7 g/ha in the experiment with Barnyard grass (BG) [1] (2 lb/acre) stood at 40%; in the experiment with Amaranth pigweed (PW) [2] (2 lb/acre) it was 90%; with Turnip (TP) [3] (2 lb/acre), 100%; in the experiment on Cotton (CT) [5] (2 lb/acre) it was 100%; in the experiment with Bean (BN) (2 lb/acre) it was 100%. Also, the pest or weed control at 4483.4 g/ha with Barnyard grass (BG) [1] (4 lb/acre) came to 70%; in the experiment with Amaranth pigweed (PW) [2] (4 lb/acre) it was 90%; with Turnip (TP) [3], 80%; with Crabgrass (CG) [4], 90%; in the experiment with Cotton (CT) [5], 100%; in the experiment on Corn (CN) [6] (4 lb/acre) it was 30%. In addition, the pest or weed control at 4483.4 g/ha was 60% in the experiment with Johnson grass (JG) [7] (4 lb/acre) and 100% in the experiment with Bean (BN). Besides, the pest or weed control worked out at 20% in the experiment with Crabgrass (CG) [4] (2 lb/acre), 40% in the experiment on Corn (CN) [6] (2 lb/acre) and 20% in the experiment with Johnson grass (JG) [7] (2 lb/acre).
As to `CCCC(C)c1nnc(NC(=O)NC)s1` (centres unmarked) [Example 83], the pest or weed control at 4483.4 g/ha in the experiment with Barnyard grass (BG) [8] came to 50%; with Johnson grass (JG) [9], 60%; with Turnip (TP) [3], 90%; with Turnip (TP) [10], 10%; in the experiment with Crabgrass (CG) [11], 90%; in the experiment with Crabgrass (CG) [4], 10%. For the same molecule, the pest or weed control at 4483.4 g/ha came out at 10% in the experiment on Cotton (CT) [5]; 10% in the experiment on Cotton (CT) [12]; 40% with Bean (BN); 10% with Corn (CN) [13]; 80% in the experiment with Amaranth pigweed (PW) [14].

These data come from patent US4175081A, “5-Substituted thiadiazole ureas” (priority 1977, dated 1979).
